In experiment [1] the test system is W256. The experiment is described as follows: Antitumour activity against Walker 256 adenocarcinoma cells implanted in Wistar rat assessed as increase in animal survival rate by measuring T/C ratio at 0.65 mg/kg, ip qd for 3 days administered on day 3,4,5 after tumor cell transplantation. In kind it is functional. The settings on record: time 3 day.
The test system of experiment [2] is Quadruplex DNA. The experiment is described as follows: Stabilization of 5'-FAM/3'-TAMRA labeled c-Myc promoter G4 quadruplex DNA FPu18 (unknown origin) assessed as change in melting temperature at 10 microM measured after 15 mins by FRET assay. Format: nucleic-acid assay.
The test system of experiment [3] is Quadruplex DNA. The experiment in a line: Stabilization of 5'-FAM/3'-TAMRA labeled K-Ras G4 quadruplex DNA (unknown origin) assessed as change in melting temperature at 10 microM measured after 15 mins by FRET assay. In kind it is nucleic-acid assay.
Experiment [4] relates to MCF7. The experiment in a line: Cytotoxicity against human MCF7 cells assessed as reduction in cell viability measured after 72 hrs by SRB assay. The settings on record: MCF7, 72 h. Format: functional, cell-based. For orientation: Sulforhodamine B stains cellular protein and so reports cell mass.
The test system of experiment [5] is HT-29. The experiment is described as follows: Cytotoxicity against human HT-29 cells assessed as reduction in cell viability measured after 72 hrs by SRB assay. In kind it is functional, cell-based. The settings on record: HT-29, 72 h.
Experiment [6] has as its system PANC-1. The experiment in a line: Antitumour activity against human PANC-1 cells xenografted in Crl:Nu-Foxnl nu mouse assessed as inhibition of tumour growth at total effective dose of 10 mg/kg, iv measured on day 45. The settings on record: PANC-1, iv, 1080 h, time 45 day, read-out: TGI. In kind it is functional. For orientation: Xenograft models place foreign cells or tissue in a host animal.

Experiment [7] deals with PANC-1. The experiment in a line: Cytotoxicity against human PANC-1 cells assessed as reduction in cell viability measured after 72 hrs by SRB assay. In kind it is functional, cell-based. The settings on record: PANC-1, 72 h.
Experiment [8] deals with HCT-116. The experiment is described as follows: Cytotoxicity against human HCT-116 cells assessed as reduction in cell viability measured after 72 hrs by SRB assay. In kind it is functional, cell-based. The settings on record: HCT-116, 72 h.
Experiment [9] has as its system NCI-H460. The experiment is described as follows: Antitumour activity against human NCI-H460 cells xenografted in Crl:Nu-Foxnl nu mouse assessed as inhibition of tumour growth at total effective dose of 16 mg/kg, iv measured on day 14. The settings on record: 336 h, time 14 day, read-out: TGI. In kind it is functional.
The subject of experiment [10] is UMUC3. The experiment in a line: Cytotoxicity against human UMUC3 cells assessed as reduction in cell viability measured after 72 hrs by SRB assay. The settings on record: UMUC3, 72 h. Format: functional, cell-based.
For experiment [11], the system named is MDA-MB-231. The experiment in a line: Cytotoxicity against human MDA-MB-231 cells assessed as reduction in cell viability measured after 72 hrs by SRB assay. Format: functional, cell-based. The settings on record: MDA-MB-231, 72 h.
Experiment [12] relates to MIA PaCa-2. The experiment is described as follows: Cytotoxicity against human MIA PaCa-2 cells assessed as reduction in cell viability measured after 72 hrs by SRB assay. Format: functional, cell-based. The settings on record: MIA PaCa-2, 72 h.
Experiment [13] relates to PC-3. The experiment is described as follows: Cytotoxicity against human PC-3 cells assessed as reduction in cell viability measured after 72 hrs by SRB assay. Format: functional, cell-based. The settings on record: PC-3, 72 h.
Experiment [14] relates to ASPC1. The experiment is described as follows: Cytotoxicity against human ASPC1 cells assessed as reduction in cell viability measured after 72 hrs by SRB assay. In kind it is functional, cell-based. The settings on record: ASPC1, 72 h.
Experiment [15] has as its system NCI-H460. The experiment in a line: Antitumour activity against human NCI-H460 cells xenografted in Crl:Nu-Foxnl nu mouse assessed as inhibition of tumour growth at total effective dose of 5 mg/kg, iv measured on day 15. Format: functional. The settings on record: 360 h, time 15 day, read-out: TGI.
Experiment [16] relates to DU-145. The experiment is described as follows: Cytotoxicity against human DU-145 cells assessed as reduction in cell viability measured after 72 hrs by SRB assay. In kind it is functional, cell-based. The settings on record: DU-145, 72 h.
The subject of experiment [17] is Quadruplex DNA. The experiment is described as follows: Stabilization of 5'-FAM/3'-TAMRA labeled telomeric G4 quadruplex DNA F21T (unknown origin) assessed as change in melting temperature at 10 microM measured after 15 mins by FRET assay. Format: nucleic-acid assay.
The test system of experiment [18] is NCI-H460. The experiment is described as follows: Cytotoxicity against human NCI-H460 cells assessed as reduction in cell viability measured after 72 hrs by SRB assay. In kind it is functional, cell-based. The settings on record: NCI-H460, 72 h.
In experiment [19] the test system is MIA PaCa-2. The experiment in a line: Antitumour activity against human MIA PaCa-2 cells xenografted in Crl:Nu-Foxnl nu mouse assessed as inhibition of tumour growth at total effective dose of 8 mg/kg, ip measured on day 15. The settings on record: MIA PaCa-2, ip, 360 h, time 15 day, read-out: TGI. Format: functional.
For experiment [20], the system named is BXPC-3. The experiment in a line: Antitumour activity against human BXPC-3 cells xenografted in Crl:Nu-Foxnl nu mouse assessed as inhibition of tumour growth at total effective dose of 30 mg/kg, iv measured on day 37. The settings on record: BXPC-3, iv, 888 h, time 37 day, read-out: TGI. In kind it is functional.
Experiment [21] concerns PANC-1. The experiment is described as follows: Antitumour activity against human PANC-1 cells xenografted in Crl:Nu-Foxnl nu mouse assessed as inhibition of tumour growth at total effective dose of 8 mg/kg, iv measured on day 32. The settings on record: PANC-1, iv, 768 h, time 32 day, read-out: TGI. In kind it is functional.
In experiment [22] the test system is BXPC-3. The experiment is described as follows: Cytotoxicity against human BXPC-3 cells assessed as reduction in cell viability measured after 72 hrs by SRB assay. The settings on record: BXPC-3, 72 h. In kind it is functional, cell-based.
Experiment [23] has as its system PANC-1. The experiment is described as follows: Antitumour activity against human PANC-1 cells xenografted in Crl:Nu-Foxnl nu mouse assessed as inhibition of tumour growth at total effective dose of 36 mg/kg, iv measured on day 45. In kind it is functional. The settings on record: PANC-1, iv, 1080 h, time 45 day, read-out: TGI.
Experiment [24] in a line: Stabilization of ds 5'-FAM-d(TATAGCTATA-HEG-TATAGCTATA)-TAMRA-3' (unknown origin) assessed as change in melting temperature at 10 microM measured after 15 mins by FRET assay. The settings on record: Homo sapiens.
In experiment [25] the test system is PANC-1. The experiment in a line: Antitumour activity against human PANC-1 cells xenografted in Crl:Nu-Foxnl nu mouse assessed as inhibition of tumour growth at total effective dose of 10 mg/kg, iv measured on day 31. The settings on record: PANC-1, iv, 744 h, time 31 day, read-out: TGI. In kind it is functional.
The test system of experiment [26] is UMUC3. The experiment is described as follows: Antitumour activity against human UMUC3 cells xenografted in Crl:Nu-Foxnl nu mouse assessed as inhibition of tumour growth at total effective dose of 28 mg/kg, iv measured on day 23. In kind it is functional. The settings on record: 552 h, time 23 day, read-out: TGI.
Experiment [27] deals with Capan-2. The experiment in a line: Cytotoxicity against human Capan-2 cells assessed as reduction in cell viability measured after 72 hrs by SRB assay. In kind it is functional, cell-based. The settings on record: Capan-2, 72 h.
In experiment [28] the test system is PANC-1. The experiment in a line: Antitumour activity against human PANC-1 cells xenografted in Crl:Nu-Foxnl nu mouse assessed as inhibition of tumour growth at total effective dose of 16 mg/kg, iv measured on day 40. The settings on record: PANC-1, iv, 960 h, time 40 day, read-out: TGI. Format: functional.
Experiment [29] concerns PANC-1. The experiment in a line: Antitumour activity against human PANC-1 cells xenografted in Crl:Nu-Foxnl nu mouse assessed as inhibition of tumour growth at total effective dose of 20 mg/kg, iv measured on day 36. Format: functional. The settings on record: PANC-1, iv, 864 h, time 36 day, read-out: TGI.
In experiment [30] the test system is MIA PaCa-2. The experiment in a line: Antitumour activity against human MIA PaCa-2 cells xenografted in Crl:Nu-Foxnl nu mouse assessed as inhibition of tumour growth at total effective dose of 16 mg/kg, iv measured on day 26. Format: functional. The settings on record: MIA PaCa-2, iv, 624 h, time 26 day, read-out: TGI.
Experiment [31] relates to MIA PaCa-2. The experiment is described as follows: Antitumour activity against human MIA PaCa-2 cells xenografted in Crl:Nu-Foxnl nu mouse assessed as inhibition of tumour growth at total effective dose of 42 mg/kg, iv measured on day 26. Format: functional. The settings on record: MIA PaCa-2, iv, 624 h, time 26 day, read-out: TGI.

One may read the T/C as the result in the treated group divided by that in the control group, in per cent. As a reminder, the ΔTm is the shift of the melting midpoint relative to a reference. A word on the IC50: it is the point on the concentration scale where inhibition reaches its midpoint.

With `CN(CCCNc1c2ccccc2nc2cccc([N+](=O)[O-])c12)CCCNc1ccc([N+](=O)[O-])c2[nH]c3ccccc3c(=O)c12`, in experiment [1], the T/C is 450%. Besides, the ΔTm in experiment [2] was 19.4 °C; in experiment [3] it was 27.4 °C; in [17] it was 24.5 °C. For the same compound, the IC50 amounted to 0.695 µM in [4]; 0.067 µM in [5]; 0.028 µM in experiment [7]; 0.26 µM in [8]; 0.029 µM in [10]; 0.028 µM in [11]. Further, the IC50 came out at 0.103 µM in experiment [12]; 0.051 µM in experiment [13]; 0.066 µM in [14]; 0.024 µM in experiment [16]; 0.01 µM in experiment [18]. In addition, the inhibition in vivo at 10 mg/kg in experiment [6] stood at 23%. In addition, the inhibition in vivo at 16 mg/kg in [9] turned out to be 35%. In addition, the inhibition in vivo at 5 mg/kg in experiment [15] worked out at 14%.
Take `O=c1c2cc(O)ccc2n2cnc3ccc(NCCCN4CCN(CCCNc5c6ccccc6nc6cccc([N+](=O)[O-])c56)CC4)c1c32`: the inhibition in vivo at 8 mg/kg in experiment [19] and in experiment [21] was 51% throughout. Further, in experiment [20], the inhibition in vivo at 30 mg/kg came out at 64%. Besides, the ΔTm in experiment [2] was found to be 28.5 °C; in experiment [3] it was 22.3 °C; in experiment [24] it was 3.8 °C; in experiment [17] it was 9.2 °C. Further, the IC50 in experiment [4] is 0.062 µM; in experiment [5], 0.081 µM; in experiment [22], 0.164 µM; in experiment [7], 0.024 µM; in experiment [8], 0.02 µM; in experiment [10], 0.018 µM. The IC50 in experiment [11] was 0.019 µM; in experiment [27], 0.043 µM; in experiment [12], 0.021 µM; in experiment [13], 0.035 µM; in experiment [14], 0.191 µM; in [16], 0.02 µM. Besides, the IC50 in experiment [18] is 0.017 µM. Moreover, the inhibition in vivo at 36 mg/kg in experiment [23] came to 90%. Moreover, the inhibition in vivo at 10 mg/kg in experiment [25] came to 71%. Besides, in experiment [26], the inhibition in vivo at 28 mg/kg was 47%. In addition, the inhibition in vivo at 16 mg/kg in [28] amounted to 82%; in experiment [30], 29%. Further, in experiment [29], the inhibition in vivo at 20 mg/kg amounted to 59%. In addition, the inhibition in vivo at 42 mg/kg in [31] stood at 50%.

For the origin of these results see ChEMBL document CHEMBL4765407, “Design, synthesis and high antitumor potential of new unsymmetrical bisacridine derivatives towards human solid tumors, specifically pancreatic cancers and their unique ability to stabilize DNA G-quadruplexes” (Eur J Med Chem, 2020).
